Laboratory results taken from ChEMBL document CHEMBL1140860, “Synthesis and evaluation of dihydroartemisinin and dihydroartemisitene acetal dimers showing anticancer and antiprotozoal activity” (Bioorg Med Chem, 2009).
pIC50: −log10 of the molar value.

Assays:
SF-295 = experiment: Growth inhibition of human SF295 cells after 48 hrs by sulforhodamine B assay; type: functional; settings: SF-295, 48 h
KM12 = experiment: Growth inhibition of human KM12 cells after 48 hrs by sulforhodamine B assay; type: functional; settings: KM12, 48 h
TK-10 = experiment: Growth inhibition of human TK10 cells after 48 hrs by sulforhodamine B assay; type: functional; settings: TK-10, 48 h
NCI-H460 = experiment: Growth inhibition of human NCI-H460 cells after 48 hrs by sulforhodamine B assay; type: functional; settings: NCI-H460, 48 h
HOP-92 = experiment: Growth inhibition of human HOP92 cells after 48 hrs by sulforhodamine B assay; type: functional; settings: HOP-92, 48 h
Plasmodium falciparum = experiment: Antimalarial activity after 72 hrs against chloroquine-sensitive Plasmodium falciparum D6 infected in erythrocytes by LDH assay; type: functional, organism-based; settings: D6, 72 h
MOLT-4 = experiment: Growth inhibition of human MOLT4 cells after 48 hrs by sulforhodamine B assay; type: functional; settings: MOLT-4, 48 h
PC-3 = experiment: Growth inhibition of human PC3 cells after 48 hrs by sulforhodamine B assay; type: functional; settings: PC-3, 48 h
UACC-257 = experiment: Growth inhibition of human UACC257 cells after 48 hrs by sulforhodamine B assay; type: functional; settings: UACC-257, 48 h
A549 = experiment: Growth inhibition of human A549 cells after 48 hrs by sulforhodamine B assay; type: functional; settings: A549, 48 h
IGROV-1 = experiment: Growth inhibition of human IGROV1 cells after 48 hrs by sulforhodamine B assay; type: functional; settings: IGROV-1, 48 h
HCT-116 = experiment: Growth inhibition of human HCT116 cells after 48 hrs by sulforhodamine B assay; type: functional; settings: HCT-116, 48 h
[1] = Selectivity index, ratio of TC50 for african green monkey (Cercopithecus aethiops) Vero cells to IC50 for chloroquine-resistant Plasmodium falciparum W2; type: toxicity, cell-based
Malme-3M = experiment: Growth inhibition of human MALME-3M cells after 48 hrs by sulforhodamine B assay; type: functional
ACHN = experiment: Growth inhibition of human ACHN cells after 48 hrs by sulforhodamine B assay; type: functional
OVCAR-8 = experiment: Growth inhibition of human OVCAR8 cells after 48 hrs by sulforhodamine B assay; type: functional; settings: OVCAR-8, 48 h
NCI-H226 = experiment: Growth inhibition of human NCI-H226 cells after 48 hrs by sulforhodamine B assay; type: functional; settings: NCI-H226, 48 h
BT-549 = experiment: Growth inhibition of human BT549 cells after 48 hrs by sulforhodamine B assay; type: functional; settings: BT-549, 48 h
CAKI-1 = experiment: Growth inhibition of human Caki1 cells after 48 hrs by sulforhodamine B assay; type: functional; settings: CAKI-1, 48 h
MDA-N = experiment: Growth inhibition of human MDA-N cells after 48 hrs by sulforhodamine B assay; type: functional
SK-MEL-28 = experiment: Growth inhibition of human SK-MEL-28 cells after 48 hrs by sulforhodamine B assay; type: functional; settings: SK-MEL-28, 48 h
HCC 2998 = experiment: Growth inhibition of human HCC2998 cells after 48 hrs by sulforhodamine B assay; type: functional; settings: HCC 2998, 48 h
HT-29 = experiment: Growth inhibition of human HT-29 cells after 48 hrs by sulforhodamine B assay; type: functional; settings: HT-29, 48 h
LOX IMVI = experiment: Growth inhibition of human LOXIMVI cells after 48 hrs by sulforhodamine B assay; type: functional
SW-620 = experiment: Growth inhibition of human SW620 cells after 48 hrs by sulforhodamine B assay; type: functional; settings: SW-620, 48 h
MDA-MB-435 = experiment: Growth inhibition of human MDA-MB-435 cells after 48 hrs by sulforhodamine B assay; type: functional; settings: MDA-MB-435, 48 h
786-0 = experiment: Growth inhibition of human 786-0 cells after 48 hrs by sulforhodamine B assay; type: functional; settings: 786-0, 48 h
OVCAR-5 = experiment: Growth inhibition of human OVCAR5 cells after 48 hrs by sulforhodamine B assay; type: functional; settings: OVCAR-5, 48 h
U-251 = experiment: Growth inhibition of human U251 cells after 48 hrs by sulforhodamine B assay; type: functional; settings: U-251, 48 h
MDA-MB-231 = experiment: Growth inhibition of human MDA-MB-231 cells after 48 hrs by sulforhodamine B assay; type: functional; settings: MDA-MB-231, 48 h
HOP-62 = experiment: Growth inhibition of human HOP62 cells after 48 hrs by sulforhodamine B assay; type: functional; settings: HOP-62, 48 h
SK-MEL-5 = experiment: Growth inhibition of human SK-MEL-5 cells after 48 hrs by sulforhodamine B assay; type: functional; settings: SK-MEL-5, 48 h
[2] = Cytotoxicity against african green monkey Vero cells after 48 hrs by neutral red assay; type: cell-based; settings: chlorocebus sabaeus, read-out: TC50
[3] = Growth inhibition of human Hs 578T cells after 48 hrs by sulforhodamine B assay; type: functional
NCI-H522 = experiment: Growth inhibition of human NCI-H522 cells after 48 hrs by sulforhodamine B assay; type: functional; settings: NCI-H522, 48 h
[4] = Selectivity index, ratio of TC50 for african green monkey (Cercopithecus aethiops) Vero cells to IC50 for chloroquine-sensitive Plasmodium falciparum D6; type: toxicity, cell-based
CCRF-CEM = experiment: Growth inhibition of human CCRF-CEM cells after 48 hrs by sulforhodamine B assay; type: functional
EKVX = experiment: Growth inhibition of human EKVX cells after 48 hrs by sulforhodamine B assay; type: functional
[5] = Growth inhibition of human […] cells after 48 hrs by sulforhodamine B assay; type: functional
SF-268 = experiment: Growth inhibition of human SF268 cells after 48 hrs by sulforhodamine B assay; type: functional; settings: SF-268, 48 h
NCI/ADR-RES = experiment: Growth inhibition of human NCI/ADR-RES cells after 48 hrs by sulforhodamine B assay; type: functional
M14 = experiment: Growth inhibition of human M14 cells after 48 hrs by sulforhodamine B assay; type: functional; settings: M14, 48 h
HCT-15 = experiment: Growth inhibition of human HCT15 cells after 48 hrs by sulforhodamine B assay; type: functional; settings: HCT-15, 48 h
SR = experiment: Growth inhibition of human SR cells after 48 hrs by sulforhodamine B assay; type: functional
A498 = experiment: Growth inhibition of human A498 cells after 48 hrs by sulforhodamine B assay; type: functional; settings: A498, 48 h
HL-60 = experiment: Growth inhibition of human HL-60(TB) cells after 48 hrs by sulforhodamine B assay; type: functional; settings: HL-60, 48 h
MCF7 = experiment: Growth inhibition of human MCF7 cells after 48 hrs by sulforhodamine B assay; type: functional; settings: MCF7, 48 h
RXF 393 = experiment: Growth inhibition of human RXF393 cells after 48 hrs by sulforhodamine B assay; type: functional; settings: RXF 393, 48 h
UACC-62 = experiment: Growth inhibition of human UACC62 cells after 48 hrs by sulforhodamine B assay; type: functional; settings: UACC-62, 48 h

C[C@H]1[C@@H](OCCO[C@H]2O[C@@H]3O[C@@]4(C)CC[C@H]5[C@H](C)CC[C@@H]([C@H]2C)[C@@]35OO4)O[C@@H]2O[C@@]3(C)CC[C@H]4[C@H](C)CC[C@@H]1[C@@]24OO3
GI50 (SF-295): 800 nM
GI50 (KM12): 81 nM
GI50 (TK-10): 206 nM
GI50 (NCI-H460): 150 nM
GI50 (HOP-92): 149 nM
pIC50 (Plasmodium falciparum): 5.77
GI50 (MOLT-4): 42 nM
GI50 (PC-3): 10 nM
GI50 (UACC-257): 343 nM
GI50 (A549): 63 nM
GI50 (IGROV-1): 65 nM
GI50 (HCT-116): 26 nM
selectivity ratio [1]: > 64
GI50 (Malme-3M): 504 nM
GI50 (ACHN): 257 nM
GI50 (OVCAR-8): 179 nM
GI50 (NCI-H226): 321 nM
GI50 (BT-549): 14.3 µM
GI50 (CAKI-1): 297 nM
GI50 (MDA-N): 219 nM
GI50 (SK-MEL-28): 32.5 µM
GI50 (HCC 2998): 6.92 µM
GI50 (HT-29): 41 nM
GI50 (LOX IMVI): 72 nM
GI50 (SW-620): 70 nM
GI50 (MDA-MB-435): 572 nM
GI50 (786-0): 305 nM
GI50 (OVCAR-5): 83 nM
GI50 (U-251): 267 nM
GI50 (MDA-MB-231): 15 µM
GI50 (HOP-62): 107 nM
GI50 (SK-MEL-5): 316 nM
CC50 at 48 h [2]: > 80 µM
GI50 [3]: 656 nM
GI50 (NCI-H522): 69 nM
selectivity ratio [4]: > 48
GI50 (CCRF-CEM): 68 nM
GI50 (EKVX): 146 nM
GI50 [5]: < 10 nM
GI50 (SF-268): 460 nM
GI50 (NCI/ADR-RES): 243 nM
GI50 (M14): 183 nM
GI50 (HCT-15): 19 nM
GI50 (SR): 77 nM
GI50 (A498): 77.2 µM
GI50 (HL-60): 29 nM
GI50 (MCF7): 34 nM
GI50 (RXF 393): 10.6 µM
GI50 (UACC-62): 343 nM
